Patent publication US5030732A, “Aminoethylphosphinic acid derivatives” (Merck & Co., Inc., priority 1988, dated 1991)
Values after ≈ are worked out from the molar mass of the structure shown.

What was measured:
racemase = details: in words; literature; formed by bacterial peptidase; cited from earlier work
E. coli = assay: Antibacterial activity, MIC by Method 1 (method of Atherton et al); type: cell-based; details: for MIC: Escherichia coli, read-out: Minimum inhibiting concentration (MIC)
Method: (§1) Antibacterial activity was tested by two methods.
(§2) Minimum inhibiting concentration (MIC, μg/ml) was determined by the method of Atherton et al (Antimicrobial Agent and Chemotherapy 15, 677, 1979).
(§3) Antibacterial activity: MIC (μ g/ml) [by Method 1]

E. coli TEM 2 = assay: as above; type: cell-based; details: for MIC: Escherichia coli, TEM2, read-out: Minimum inhibiting concentration (MIC)
Method: as §1, §2, §3

[1] = as above; type: cell-based; details: Enterococcus cloacae, read-out: Minimum inhibiting concentration (MIC)
Method: as §1, §2, §3

Pseudomonas aeruginosa = assay: as above; type: cell-based; details: for MIC: read-out: Minimum inhibiting concentration (MIC)
Method: as §1, §2, §3

E. coli DC 2 = assay: as above; type: cell-based; details: for MIC: Escherichia coli, DC2, read-out: Minimum inhibiting concentration (MIC)
Method: as §1, §2, §3

Salmonella typhimurium = assay: as above; type: cell-based; details: for MIC: Salmonella enterica, read-out: Minimum inhibiting concentration (MIC)
Method: as §1, §2, §3

Proteus vulgaris = assay: as above; type: cell-based; details: for MIC: read-out: Minimum inhibiting concentration (MIC)
Method: as §1, §2, §3

Streptococcus faecalis = assay: as above; type: cell-based; details: for MIC: Enterococcus faecalis, read-out: Minimum inhibiting concentration (MIC)
Method: as §1, §2, §3

Staphylococcus aureus = assay: as above; type: cell-based; details: for MIC: read-out: Minimum inhibiting concentration (MIC)
Method: as §1, §2, §3

Serratia marcescens = assay: as above; type: cell-based; details: for MIC: read-out: Minimum inhibiting concentration (MIC)
Method: as §1, §2, §3

Klebsiella pneumoniae = assay: as above; type: cell-based; details: for MIC: read-out: Minimum inhibiting concentration (MIC)
Method: as §1, §2, §3

[2] = test system: bacterial cell wall synthesis; details: in words; literature; cited from earlier work
Enterococcus cloacae = assay: Antibacterial activity, MIC by Method 1 (method of Atherton et al); type: cell-based
Method: as §1, §2, §3

**Q.** For `CC(N)P(=O)(O)O` (stereo not drawn) [1-aminoethylphosphonic acid], which “inhibition of racemase activity” value (racemase) is on record?
**A.** The value was “inhibiting racemase activity”.

**Q.** Which results are given for `CCC[C@H](N)C(=O)NC(CP(=O)(O)C(C)N)C(=O)O` (stereo partly drawn) [Compound No. 6-1, (1-Aminoethyl)(2-L-norvalylamino-2-carboxyethyl)phosphinic acid]?
**A.** MIC (E. coli): 16 µg/mL (≈ 54.2 µM); MIC (E. coli TEM 2): 256 µg/mL (≈ 867 µM); MIC [1]: 64 µg/mL (≈ 217 µM); MIC (Pseudomonas aeruginosa): > 256 µg/mL; MIC (E. coli DC 2): 16 µg/mL (≈ 54.2 µM); MIC (Salmonella typhimurium): 128 µg/mL (≈ 433 µM); MIC (Proteus vulgaris): 1 µg/mL (≈ 3.39 µM); MIC (Streptococcus faecalis): 16 µg/mL (≈ 54.2 µM); MIC (Staphylococcus aureus): 32 µg/mL (≈ 108 µM); MIC (Serratia marcescens): > 256 µg/mL

**Q.** With `CSCC[C@H](N)C(=O)NC(CP(=O)(O)C(C)N)C(=O)O` (stereo partly drawn) [Compound No. 10, (1-Aminoethyl)(2-L-methionylamino-2-carboxyethyl)phosphinic acid] as the compound, how does the MIC (E. coli) read?
**A.** Its MIC is 64 µg/mL (≈ 196 µM).

**Q.** And the MIC (E. coli TEM 2)?
**A.** Its MIC is 256 µg/mL (≈ 782 µM).

**Q.** And the MIC [1]?
**A.** Its MIC is 256 µg/mL (≈ 782 µM).

**Q.** What about the MIC (Pseudomonas aeruginosa) of the same compound?
**A.** The MIC was over 256 µg/mL.

**Q.** What about the MIC (E. coli DC 2) of the same compound?
**A.** Its MIC is 32 µg/mL (≈ 97.8 µM).

**Q.** And the MIC (Salmonella typhimurium)?
**A.** The MIC was over 256 µg/mL.

**Q.** What about the MIC (Proteus vulgaris) of the same compound?
**A.** Its MIC is 8 µg/mL (≈ 24.4 µM).

**Q.** And the MIC (Streptococcus faecalis)?
**A.** Its MIC is 2 µg/mL (≈ 6.11 µM).

**Q.** And the MIC (Klebsiella pneumoniae)?
**A.** Its MIC is over 256 µg/mL.

**Q.** What about the MIC (Staphylococcus aureus) of the same compound?
**A.** The MIC was 4 µg/mL (≈ 12.2 µM).

**Q.** And the MIC (Serratia marcescens)?
**A.** Its MIC is over 256 µg/mL.

**Q.** Which results are given for `CCC[C@H](NC(=O)[C@H](C)N)C(=O)NC(CP(=O)(O)C(C)N)C(=O)O` (stereo partly drawn) [Compound No. 20, (1-Aminoethyl)(2-L-alanyl-L-norvalylamino-2-carboxyethyl)phosphinic acid]?
**A.** MIC (E. coli): 0.5 µg/mL (≈ 1.36 µM); MIC (E. coli TEM 2): ≤ 0.25 µg/mL; MIC [1]: 0.5 µg/mL (≈ 1.36 µM); MIC (Pseudomonas aeruginosa): 256 µg/mL (≈ 699 µM); MIC (E. coli DC 2): ≤ 0.25 µg/mL; MIC (Salmonella typhimurium): 0.5 µg/mL (≈ 1.36 µM); MIC (Proteus vulgaris): 0.5 µg/mL (≈ 1.36 µM); MIC (Streptococcus faecalis): ≤ 0.25 µg/mL; MIC (Klebsiella pneumoniae): ≤ 0.25 µg/mL; MIC (Staphylococcus aureus): 256 µg/mL (≈ 699 µM); MIC (Serratia marcescens): 0.5 µg/mL (≈ 1.36 µM)

**Q.** Which “antibacterial action / inhibition of bacterial cell wall synthesis” value [2] does the source give for `CC(N)C(=O)NC(C)P(=O)(O)O` (stereo not drawn) [alaphosphalin] here?
**A.** The value was “antibacterial action”.

**Q.** What does the source list for “(D-1-aminoethyl)(2-L-nor-valylamino -2-L- or -D-carboxyethyl)phosphinic acid [6-2]”?
**A.** Minimum inhibiting concentration (MIC) (E. coli): 8 µg/mL; Minimum inhibiting concentration (MIC) (E. coli TEM 2): 64 µg/mL; Minimum inhibiting concentration (MIC) (Pseudomonas aeruginosa): > 256 µg/mL; Minimum inhibiting concentration (MIC) (E. coli DC 2): 4 µg/mL; Minimum inhibiting concentration (MIC) (Salmonella typhimurium): 32 µg/mL; Minimum inhibiting concentration (MIC) (Proteus vulgaris): 1 µg/mL; Minimum inhibiting concentration (MIC) (Streptococcus faecalis): 1 µg/mL; Minimum inhibiting concentration (MIC) (Klebsiella pneumoniae): 64 µg/mL; Minimum inhibiting concentration (MIC) (Enterococcus cloacae): 16 µg/mL; Minimum inhibiting concentration (MIC) (Staphylococcus aureus): 8 µg/mL; Minimum inhibiting concentration (MIC) (Serratia marcescens): 128 µg/mL
